Patent US20240122180A1, “FUNGICIDAL HALOMETHYL KETONES AND HYDRATES AND THEIR MIXTURES” (FMC Corporation, priority 2020, published 2024)
Marks after values point to notes of the source that are not given here.

Legend:
Format in all cases: in vivo
[1] = system: Blumeria graminis f. sp. tritici (the causal agent of wheat powdery mildew); assay: Test E: preventive spray on wheat seedlings, visual disease rating (100 = 100% control; * 50 ppm, ** 10 ppm, *** 250 ppm); details: 250 ppm test suspension, 100 = 100% disease control
Method in brief: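 Test suspension (3% acetone, acetone/water 50/50, 250 ppm PEG400) sprayed to run-off on wheat seedlings; inoculated next day with powdery mildew spore dust and kept 8 days at 20 °C. Visual rating, 100 = full and 0 = no control relative to untreated.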

[2] = system: Phakopsora pachyrhizi (the causal agent of Asian soybean rust); assay: Test A: preventive spray on soybean seedlings, visual disease rating (100 = 100% control; * 50 ppm, ** 10 ppm, *** 250 ppm); details: 100 = 100% disease control
Method in brief: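 Preventive test: one day after spraying compound (acetone/water suspension, 250 ppm PEG400), seedlings received rust spore inoculum, 24 h in saturated air then 8 days in growth chamber, both at 22 °C. Disease control scored visually, 100 = complete, 0 = none, relative to untreated controls.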

[3] = system: Zymoseptoria tritici (the causal agent of wheat leaf blotch); assay: Test D: preventive spray on wheat seedlings, disease rating (100 = 100% control; * 50 ppm, ** 10 ppm, *** 250 ppm); details: 250 ppm test suspension, 100 = 100% disease control
Method in brief: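 Compounds first dissolved in acetone (3% of final volume), then suspended in 50/50 acetone/water with 250 ppm PEG400 and sprayed to run-off on wheat seedlings; Z. tritici spores inoculated next day. Incubated saturated at 24° C. 48 h, then 20° C. 17 days; disease control rated 0–100 versus controls.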

[4] = system: Uncinula necator (the causal agent of grape powdery mildew); assay: Test C: preventive spray on grape seedlings, disease rating (100 = 100% control; * 50 ppm, ** 10 ppm, *** 250 ppm); details: 100 = 100% disease control
From the text: General protocol for preparing test suspensions for Tests A-E: the test compounds were first dissolved in acetone in an amount equal to 3% of the final volume and then suspended at the desired concentration (in ppm) in acetone and purified water (50/50 mix by volume) containing 250 ppm of the surfactant […] (polyhydric alcohol esters). The resulting test suspensions were then used in Tests A-E.
The test solution was sprayed to the point of run-off on grape seedlings. The following day the seedlings were inoculated with a spore suspension of Uncinula necator (the causal agent of grape powdery mildew) and incubated in a growth chamber at 20° C. for 12 days, after which time disease ratings were made.
Results for Tests A-E are given in Table A. In the Table, a rating of 100 indicates 100% disease control and a rating of 0 indicates no disease control (relative to the controls). An asterisk “*” or a double asterisk “**” or a triple asterisk “***” next to the rating value indicates a 50 ppm, 10 ppm and 250 ppm test suspension was used, respectively. A dash (-) indicates the compound was not tested.

[5] = system: Puccinia recondita f. sp. tritici (the causal agent of wheat leaf rust); assay: Test B: preventive spray on wheat seedlings, disease rating (100 = 100% control; * 50 ppm, ** 10 ppm, *** 250 ppm); details: 100 = 100% disease control
Method in brief: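 Preventive test: Puccinia recondita f. sp. tritici spores were inoculated one day after run-off spraying of wheat seedlings with test suspension (acetone/water 50/50, 250 ppm PEG400). After 24 h in saturated air and 6 days in a growth chamber, both at 20° C, control was scored 0–100 versus untreated plants.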

[6] = 50 ppm test suspension, 0 = no control
[7] = 250 ppm test suspension, 0 = no control
[8] = 10 ppm test suspension, soybean seedlings
[9] = 250 ppm test suspension, grape seedlings
[10] = 10 ppm test suspension, wheat seedlings
[11] = 10 ppm test suspension, 0 = no control

Structure (SMILES) | Test E disease control rating ([1]; 0 = no control) | Test A disease control rating [2, 6] [%] | Test D disease control rating ([3]; 0 = no control) | Test C disease control rating [4, 7] | Test B disease control rating [5, 6] [%] | Test E disease control rating ([1]; wheat seedlings) | Test A disease control rating [2, 8] [%] | Test D disease control rating ([3]; wheat seedlings) | Test C disease control rating [4, 9] | Test B disease control rating [5, 10] [%] | also measured
CCOC(=COc1ccc(C2CN(S(=O)(=O)CC)C2)cc1)C(F)(F)F [compound 383] | 0*** % | 0 | 0*** % | 74*** % | 0 |  |  |  |  |  | 
CCNC(=O)c1cnn(Cc2ccc(O/C=C(\OCC)C(F)(F)F)cc2)c1 [compound 437] | 69*** % | 77 | 78*** % | 77*** % | 0 |  |  |  |  |  | 
C#CCOC(=O)c1cnn(Cc2ccc(OCC(O)(O)C(F)(F)F)cc2)c1 [compound 44] |  |  |  |  |  | 91*** % | 97 | 98*** % | 16*** % | 85 | 
CCO/C(=C\Oc1ccc(Cn2cc(C(=O)OCC(C)=O)cn2)cc1)C(F)(F)F [compound 216] |  |  |  |  |  | 87*** % | 100 | 37*** % | 20*** % | 0 | 
CCOC(=O)c1cnn(Cc2c(F)c(F)c(O/C=C(\OCC)C(F)(F)F)c(F)c2F)c1 [compound 464] | 99*** % | 100 | 4*** % | 73*** % | 0 |  |  |  |  |  | 
CCO/C(=C\Oc1ccc(Cn2cc(C(=O)N(CC)CC)cn2)cc1)C(F)(F)F [compound 438] | 98*** % | 73 | 26*** % | 59*** % | 0 |  |  |  |  |  | 
CCOC(=O)c1cnn(Cc2ccc(O/C=C(\OCC)C(F)(F)F)c(Cl)c2)c1 [compound 458] | 94*** % |  | 41*** % | 25*** % |  |  |  |  |  |  | Test A disease control rating [2, 11]: 100%; Test B disease control rating [5, 11]: 0%
CCO/C(=C\Oc1ccc(Cn2cc(Br)cn2)cc1)C(F)(F)F [compound 183] |  |  |  |  |  | 0*** % | 0 | 66*** % | 70*** % | 0 | 
CCOC(=O)c1cnn(Cc2ccc(O/C=C(\OCC)C(F)(F)F)c(C#N)c2)c1 [compound 416] | 0*** % | 81 | 0*** % | 34*** % | 0 |  |  |  |  |  | 
CCOC(=COc1ccc(OC(=O)c2ccccc2F)cc1)C(F)(F)F [compound 379] | 21*** % | 0 | 0*** % | 93*** % | 0 |  |  |  |  |  | 
OC(O)(COc1ccc(Cn2cc(Br)cn2)cc1)C(F)(F)F [compound 322] | 97*** % |  | 100*** % | 48*** % |  |  |  |  |  |  | Test A disease control rating [2, 11]: 99%; Test B disease control rating [5, 11]: 86%
O=C(NCC1CC1)c1cnc(Cc2ccc(OCC3(C(F)(F)F)OCCO3)cc2)o1 [compound 248] |  |  |  |  |  | 89*** % | 71 | 93*** % | 62*** % | 0 | 
CCO/C(=C\Oc1ccc(Cn2cc(C(=O)NC3CCCC3)cn2)cc1)C(F)(F)F [compound 428] | 0*** % |  | 2*** % | 43*** % |  |  |  |  |  |  | Test A disease control rating [2, 11]: 0%; Test B disease control rating [5, 11]: 0%
CCO/C(=C\Oc1ccc(Cn2cc(C(=O)NC)cn2)cc1)C(F)(F)F [compound 414] | 90*** % |  | 97*** % | 91*** % |  |  |  |  |  |  | Test A disease control rating [2, 11]: 45%; Test B disease control rating [5, 11]: 0%
CCS(=O)(=O)N1CC(c2ccc(OCC3(C(F)(F)F)OCCO3)cc2)C1 [compound 382] | 56*** % | 0 | 4*** % | 22*** % | 0 |  |  |  |  |  | 
O=C(NCC1CC1)c1cnc(Cc2ccc(OCC(O)(O)C(F)(F)F)cc2)s1 [compound 256] |  |  |  |  |  | 82*** % | 73 | 95*** % | 15*** % | 0 | 
CCO/C(=C\Oc1ccc(Cn2cc(C(=O)OCC3CC3)cn2)cc1)C(F)(F)F [compound 220] |  |  |  |  |  | 92*** % | 100 | 28*** % | 85*** % | 0 | 
O=C(NCC(F)(F)F)c1cnc(Cc2ccc(OCC3(C(F)(F)F)OCCO3)cc2)o1 [compound 257] | 92*** % |  | 35*** % | 81*** % |  |  |  |  |  |  | Test A disease control rating [2, 11]: 54%; Test B disease control rating [5, 11]: 0%
CCO/C(=C\Oc1ccc(Cn2cc(C(=O)OC)cn2)cc1)C(F)(F)F [compound 138] |  |  |  |  |  | 99*** % | 100 | 31*** % |  | 0 | Test C disease control rating ([4]; 50 ppm test suspension, grape seedlings): 100* %
N#Cc1ccc(OCC(O)(O)C(F)(F)F)cc1 [compound 142] |  |  |  |  |  | 99*** % | 92 | 100*** % | 19*** % | 100 | 
CCO/C(=C\Oc1cccc(Cn2cc(C(=O)NC(C)C)cn2)c1)C(F)(F)F [compound 415] | 0*** % |  | 0*** % | 9*** % |  |  |  |  |  |  | Test A disease control rating [2, 11]: 0%; Test B disease control rating [5, 11]: 0%
CCO/C(=C\Oc1cccc(Cn2cc(C(=O)NCC(F)(F)F)cn2)c1)C(F)(F)F [compound 401] | 0*** % |  | 0*** % | 35*** % |  |  |  |  |  |  | Test A disease control rating [2, 11]: 0%; Test B disease control rating [5, 11]: 0%
CCO/C(=C\Oc1cccc(Cn2cc(C(=O)NCC(F)F)cn2)c1)C(F)(F)F [compound 394] | 0*** % | 0 | 24*** % | 75*** % | 0 |  |  |  |  |  | 
CCOC(=O)c1cnn(Cc2ccc(O/C=C(\OCC)C(F)(F)F)c(F)c2F)c1 [compound 430] | 99*** % | 100 | 3*** % | 82*** % | 0 |  |  |  |  |  | 
CCCOC(=O)c1cnn(Cc2ccc(O/C=C(\OCC)C(F)(F)F)cc2)c1 [compound 217] |  |  |  |  |  | 96*** % | 100 | 23*** % | 75*** % | 0 | 
CCO/C(=C\Oc1ccc(Cc2ncc(C(=O)NCC(F)F)s2)cc1)C(F)(F)F [compound 276] | 86*** % |  | 53*** % |  |  |  |  |  |  |  | Test A disease control rating [2, 11]: 13%; Test C disease control rating [4, 6]: 100* %; Test B disease control rating [5, 11]: 0%
O=C(NCC(F)(F)F)c1csc(Cc2ccc(OCC3(C(F)(F)F)OCCO3)cc2)n1 [compound 70] |  |  |  |  |  | 83% |  | 91% | 86% |  | Test A disease control rating ([2]; 250 ppm test suspension, soybean seedlings): 100%; Test B disease control rating ([5]; 250 ppm test suspension, wheat seedlings): 100%
